Test results reported in patent US6960574B2, “Antagonists of RF-amide neuropeptides” (University of Florida, priority 2002, dated 2005).
Peptide text beside a SMILES is read from it. * marks the point of attachment. Dansyl = CN(C)c1cccc2c(S(=O)(=O)*)cccc12

Tested on: receptor labeled by the radioiodinated analogue of 1 (4, [125I]-YLFQPQRF-NH2); neuropeptide FF receptor
Test: Competitive radioligand binding against 4 ([125I]Y8F-amide)
Conditions: mixture-based positional scanning; difference from averaged radioligand displacement of whole library (0); about 80 a.u. = 10-fold change in Ki

| Compound | Relative Binding Index (RBI) [a.u.] |
| --- | --- |
| CN(C)c1cccc2c(S(=O)(=O)N[C@@H](CCC(N)=O)C(=O)N[C@@H](Cc3ccccc3)C(=O)N[C@@H](CCCNC(=N)N)C(N)=O)cccc12 [Dansyl-QFR-amide] | 20 |
| CN(C)c1cccc2c(S(=O)(=O)N[C@@H](CCC(N)=O)C(=O)NCC(=O)N[C@@H](CCCNC(=N)N)C(N)=O)cccc12 [Dansyl-QGR-amide] (Dansyl-Gln-Gly-Arg-NH2) | 27 |
| CN(C)c1cccc2c(S(=O)(=O)N[C@@H](CCC(N)=O)C(=O)N[C@@H](Cc3c[nH]cn3)C(=O)N[C@@H](CCCNC(=N)N)C(N)=O)cccc12 [Dansyl-QHR-amide] (Dansyl-Gln-His-Arg-NH2) | 16 |
| CC[C@H](C)[C@H](NC(=O)[C@H](CCC(N)=O)NS(=O)(=O)c1cccc2c(N(C)C)cccc12)C(=O)N[C@@H](CCCNC(=N)N)C(N)=O [Dansyl-QIR-amide] (Dansyl-Gln-Ile-Arg-NH2) | 28 |
| CN(C)c1cccc2c(S(=O)(=O)N[C@@H](CCC(N)=O)C(=O)N[C@@H](CCCCN)C(=O)N[C@@H](CCCNC(=N)N)C(N)=O)cccc12 [Dansyl-QKR-amide] (Dansyl-Gln-Lys-Arg-NH2) | 19 |
| CC(C)C[C@H](NC(=O)[C@H](CCC(N)=O)NS(=O)(=O)c1cccc2c(N(C)C)cccc12)C(=O)N[C@@H](CCCNC(=N)N)C(N)=O [Dansyl-QLR-amide] (Dansyl-Gln-Leu-Arg-NH2) | 13 |
| CSCC[C@H](NC(=O)[C@H](CCC(N)=O)NS(=O)(=O)c1cccc2c(N(C)C)cccc12)C(=O)N[C@@H](CCCNC(=N)N)C(N)=O [Dansyl-QMR-amide] (Dansyl-Gln-Met-Arg-NH2) | 21 |
| CN(C)c1cccc2c(S(=O)(=O)N[C@@H](CCC(N)=O)C(=O)N[C@@H](CC(N)=O)C(=O)N[C@@H](CCCNC(=N)N)C(N)=O)cccc12 [Dansyl-QNR-amide] (Dansyl-Gln-Asn-Arg-NH2) | 23 |
| CN(C)c1cccc2c(S(=O)(=O)N[C@@H](CCC(N)=O)C(=O)N3CCC[C@H]3C(=O)N[C@@H](CCCNC(=N)N)C(N)=O)cccc12 [Dansyl-QPR-amide] (Dansyl-Gln-Pro-Arg-NH2) | 25 |
| CN(C)c1cccc2c(S(=O)(=O)N[C@@H](CCC(N)=O)C(=O)N[C@@H](CCC(N)=O)C(=O)N[C@@H](CCCNC(=N)N)C(N)=O)cccc12 [Dansyl-QQR-amide, dansyl-Gln-Gln-Arg-NH2] (Dansyl-Gln-Gln-Arg-NH2) | 35 |
| CN(C)c1cccc2c(S(=O)(=O)N[C@@H](CCC(N)=O)C(=O)N[C@@H](CCCNC(=N)N)C(=O)N[C@@H](CCCNC(=N)N)C(N)=O)cccc12 [Dansyl-QRR-amide] (Dansyl-Gln-Arg-Arg-NH2) | 20 |
| CN(C)c1cccc2c(S(=O)(=O)N[C@@H](CCC(N)=O)C(=O)N[C@@H](CO)C(=O)N[C@@H](CCCNC(=N)N)C(N)=O)cccc12 [Dansyl-QSR-amide, dansyl-Gln-Ser-Arg-NH2] (Dansyl-Gln-Ser-Arg-NH2) | 42 |
| C[C@@H](O)[C@H](NC(=O)[C@H](CCC(N)=O)NS(=O)(=O)c1cccc2c(N(C)C)cccc12)C(=O)N[C@@H](CCCNC(=N)N)C(N)=O [Dansyl-QTR-amide] (Dansyl-Gln-Thr-Arg-NH2) | 27 |
| CC(C)[C@H](NC(=O)[C@H](CCC(N)=O)NS(=O)(=O)c1cccc2c(N(C)C)cccc12)C(=O)N[C@@H](CCCNC(=N)N)C(N)=O [Dansyl-QVR-amide] (Dansyl-Gln-Val-Arg-NH2) | 17 |
| CN(C)c1cccc2c(S(=O)(=O)N[C@@H](CCC(N)=O)C(=O)N[C@@H](Cc3c[nH]c4ccccc34)C(=O)N[C@@H](CCCNC(=N)N)C(N)=O)cccc12 [Dansyl-QWR-amide] (Dansyl-Gln-Trp-Arg-NH2) | 30 |
| CN(C)c1cccc2c(S(=O)(=O)N[C@@H](CCC(N)=O)C(=O)N[C@@H](Cc3ccc(O)cc3)C(=O)N[C@@H](CCCNC(=N)N)C(N)=O)cccc12 [Dansyl-QYR-amide] (Dansyl-Gln-Tyr-Arg-NH2) | 20 |
| C[C@H](NC(=O)[C@H](CCCNC(=N)N)NS(=O)(=O)c1cccc2c(N(C)C)cccc12)C(=O)N[C@@H](CCCNC(=N)N)C(N)=O [Dansyl-RAR-amide] (Dansyl-Arg-Ala-Arg-NH2) | −42 |
| CN(C)c1cccc2c(S(=O)(=O)N[C@@H](CCCNC(=N)N)C(=O)N[C@@H](CC(=O)O)C(=O)N[C@@H](CCCNC(=N)N)C(N)=O)cccc12 [Dansyl-RDR-amide] (Dansyl-Arg-Asp-Arg-NH2) | −11 |
| CN(C)c1cccc2c(S(=O)(=O)N[C@@H](CCCNC(=N)N)C(=O)N[C@@H](CCC(=O)O)C(=O)N[C@@H](CCCNC(=N)N)C(N)=O)cccc12 [Dansyl-RER-amide] (Dansyl-Arg-Glu-Arg-NH2) | 7 |
| CN(C)c1cccc2c(S(=O)(=O)N[C@@H](CCCNC(=N)N)C(=O)N[C@@H](Cc3ccccc3)C(=O)N[C@@H](CCCNC(=N)N)C(N)=O)cccc12 [Dansyl-RFR-amide] (Dansyl-Arg-Phe-Arg-NH2) | 5 |
| CN(C)c1cccc2c(S(=O)(=O)N[C@@H](CCCNC(=N)N)C(=O)NCC(=O)N[C@@H](CCCNC(=N)N)C(N)=O)cccc12 [Dansyl-RGR-amide] (Dansyl-Arg-Gly-Arg-NH2) | 12 |
| CN(C)c1cccc2c(S(=O)(=O)N[C@@H](CCCNC(=N)N)C(=O)N[C@@H](Cc3c[nH]cn3)C(=O)N[C@@H](CCCNC(=N)N)C(N)=O)cccc12 [Dansyl-RHR-amide] (Dansyl-Arg-His-Arg-NH2) | 1 |
| CC[C@H](C)[C@H](NC(=O)[C@H](CCCNC(=N)N)NS(=O)(=O)c1cccc2c(N(C)C)cccc12)C(=O)N[C@@H](CCCNC(=N)N)C(N)=O [Dansyl-RIR-amide] (Dansyl-Arg-Ile-Arg-NH2) | 13 |
| CN(C)c1cccc2c(S(=O)(=O)N[C@@H](CCCNC(=N)N)C(=O)N[C@@H](CCCCN)C(=O)N[C@@H](CCCNC(=N)N)C(N)=O)cccc12 [Dansyl-RKR-amide] (Dansyl-Arg-Lys-Arg-NH2) | 4 |
| CC(C)C[C@H](NC(=O)[C@H](CCCNC(=N)N)NS(=O)(=O)c1cccc2c(N(C)C)cccc12)C(=O)N[C@@H](CCCNC(=N)N)C(N)=O [Dansyl-RLR-amide] | −2 |
| CSCC[C@H](NC(=O)[C@H](CCCNC(=N)N)NS(=O)(=O)c1cccc2c(N(C)C)cccc12)C(=O)N[C@@H](CCCNC(=N)N)C(N)=O [Dansyl-RMR-amide] (Dansyl-Arg-Met-Arg-NH2) | 7 |
| CN(C)c1cccc2c(S(=O)(=O)N[C@@H](CCCNC(=N)N)C(=O)N[C@@H](CC(N)=O)C(=O)N[C@@H](CCCNC(=N)N)C(N)=O)cccc12 [Dansyl-RNR-amide] (Dansyl-Arg-Asn-Arg-NH2) | 8 |

Now from value to compound:

| Relative Binding Index (RBI) [a.u.] | Compound |
| --- | --- |
| 10 | CN(C)c1cccc2c(S(=O)(=O)N[C@@H](CCCNC(=N)N)C(=O)N3CCC[C@H]3C(=O)N[C@@H](CCCNC(=N)N)C(N)=O)cccc12 [Dansyl-RPR-amide] (Dansyl-Arg-Pro-Arg-NH2) |
| 20 | CN(C)c1cccc2c(S(=O)(=O)N[C@@H](CCCNC(=N)N)C(=O)N[C@@H](CCC(N)=O)C(=O)N[C@@H](CCCNC(=N)N)C(N)=O)cccc12 [Dansyl-RQR-amide] (Dansyl-Arg-Gln-Arg-NH2) |
| 5 | CN(C)c1cccc2c(S(=O)(=O)N[C@@H](CCCNC(=N)N)C(=O)N[C@@H](CCCNC(=N)N)C(=O)N[C@@H](CCCNC(=N)N)C(N)=O)cccc12 [Dansyl-RRR-amide] (Dansyl-Arg-Arg-Arg-NH2) |
| 27 | CN(C)c1cccc2c(S(=O)(=O)N[C@@H](CCCNC(=N)N)C(=O)N[C@@H](CO)C(=O)N[C@@H](CCCNC(=N)N)C(N)=O)cccc12 [Dansyl-RSR-amide] (Dansyl-Arg-Ser-Arg-NH2) |
| 12 | C[C@@H](O)[C@H](NC(=O)[C@H](CCCNC(=N)N)NS(=O)(=O)c1cccc2c(N(C)C)cccc12)C(=O)N[C@@H](CCCNC(=N)N)C(N)=O [Dansyl-RTR-amide] (Dansyl-Arg-Thr-Arg-NH2) |
| 2 | CC(C)[C@H](NC(=O)[C@H](CCCNC(=N)N)NS(=O)(=O)c1cccc2c(N(C)C)cccc12)C(=O)N[C@@H](CCCNC(=N)N)C(N)=O [Dansyl-RVR-amide] (Dansyl-Arg-Val-Arg-NH2) |
| 16 | CN(C)c1cccc2c(S(=O)(=O)N[C@@H](CCCNC(=N)N)C(=O)N[C@@H](Cc3c[nH]c4ccccc34)C(=O)N[C@@H](CCCNC(=N)N)C(N)=O)cccc12 [Dansyl-RWR-amide] (Dansyl-Arg-Trp-Arg-NH2) |
| 6 | CN(C)c1cccc2c(S(=O)(=O)N[C@@H](CCCNC(=N)N)C(=O)N[C@@H](Cc3ccc(O)cc3)C(=O)N[C@@H](CCCNC(=N)N)C(N)=O)cccc12 [Dansyl-RYR-amide] (Dansyl-Arg-Tyr-Arg-NH2) |
| −33 | C[C@H](NC(=O)[C@H](CO)NS(=O)(=O)c1cccc2c(N(C)C)cccc12)C(=O)N[C@@H](CCCNC(=N)N)C(N)=O [Dansyl-SAR-amide] (Dansyl-Ser-Ala-Arg-NH2) |
| −2 | CN(C)c1cccc2c(S(=O)(=O)N[C@@H](CO)C(=O)N[C@@H](CC(=O)O)C(=O)N[C@@H](CCCNC(=N)N)C(N)=O)cccc12 [Dansyl-SDR-amide] (Dansyl-Ser-Asp-Arg-NH2) |
| 16 | CN(C)c1cccc2c(S(=O)(=O)N[C@@H](CO)C(=O)N[C@@H](CCC(=O)O)C(=O)N[C@@H](CCCNC(=N)N)C(N)=O)cccc12 [Dansyl-SER-amide] (Dansyl-Ser-Glu-Arg-NH2) |
| 15 | CN(C)c1cccc2c(S(=O)(=O)N[C@@H](CO)C(=O)N[C@@H](Cc3ccccc3)C(=O)N[C@@H](CCCNC(=N)N)C(N)=O)cccc12 [Dansyl-SFR-amide] (Dansyl-Ser-Phe-Arg-NH2) |
| 22 | CN(C)c1cccc2c(S(=O)(=O)N[C@@H](CO)C(=O)NCC(=O)N[C@@H](CCCNC(=N)N)C(N)=O)cccc12 [Dansyl-SGR-amide] (Dansyl-Ser-Gly-Arg-NH2) |
